According to patent US9387246B2, “Treatment methods for rheumatoid arthritis” (priority 2013, dated 2016):

Key:
YKL-40 = conditions: literature 1990-2012, ACR abstracts 2006-2013; cited from earlier work
Resistin = conditions: literature 1990-2012, ACR abstracts 2006-2013; cited from earlier work
MMP-1 = conditions: literature 1990-2012, ACR abstracts 2006-2013; cited from earlier work
VCAM-1 = conditions: literature 1990-2012, ACR abstracts 2006-2013; cited from earlier work
CRP = conditions: literature 1990-2012, ACR abstracts 2006-2013; cited from earlier work
SAA = conditions: literature 1990-2012, ACR abstracts 2006-2013; cited from earlier work
IL-6 = conditions: literature 1990-2012, ACR abstracts 2006-2013; cited from earlier work
VEGF-A = conditions: literature 1990-2012, ACR abstracts 2006-2013; cited from earlier work
MMP-3 = conditions: literature 1990-2012, ACR abstracts 2006-2013; cited from earlier work
TNFR1 = system: TNFR1; parameters: key: Y: biomarkers that are known to be positively affected by a treatment method (i.e., biomarkers that are known to have a favorable response to a treatment method); N: biomarkers that are not known to be positively affected by a treatment method (i.e., biomarkers that are known to have an unfavorable response to a treatment method); biomarkers that are known to be positively affected by a ORENCIA, the brand name of Atabacept; conditions: literature 1990-2012, ACR abstracts 2006-2013; cited from earlier work
[1] = system: Rheumatoid arthritis patients; format: in vivo, human; conditions: for Treatment effectiveness (reason for discontinuation / earlier trial): patient 16, January 2014
Source text: A treatment method administered to a patient may be a combination of one or more treatment methods.

[2] = system: Rheumatoid arthritis patients; experiment: VECTRA DA test: serum levels of biomarkers, % elevation over control (InFoRM study); format: in vivo, human
Source text: (§1) VECTRA® DA test is a multi-biomarker disease activity (MBDA) blood test sold by Crescendo Bioscience. The test provides a quantitative assessment of rheumatoid arthritis disease activity in patients by using twelve protein biomarkers—Vascular Cell Adhesion Molecule 1 (VCAM-1), Epidermal Growth Factor (EGF), Vascular Endothelial Growth Factor A (VEGF-A), Interleukin-6 (IL-6), Tumor Necrosis Factor Receptor Type 1 (TNFR1), Matrix Metalloproteinase-1 (MMP-1), Matrix Metalloproteinase-3 (MMP-3), YKL-40, Leptin, Resistin, Serum Amyloid A (SAA), and C-Reactive Protein (CRP). The twelve biomarkers in VECTRA® DA test are relevant to key aspects of the pathophysiology of RA. Li et al., Curr. Med. Res. & Opin. 29(1): 85-92 (2013). The test measures the concentrations of the biomarkers and provides the concentrations and percentile (RA percentile) value for each biomarker.
The VECTRA DA MBDA test uses Meso Scale Discovery (MSD, Gaithersburg, Md., USA) sandwich immunoassay electrochemiluminescent technology to measure biomarker levels. Eastman et al., J. of Pharmaceutical and Biomedical Analysis 70: 415-424 (2012). In the immunoassay, capture antibodies are spotted on carbon electrodes in a planar array and detection antibodies are labeled with an electrochemiluminescent ruthenium reporter. Id. Upon electrical stimulation, light is produced from reporter molecules bound to the electrode to determine biomarker concentration.

[3] = system: Rheumatoid arthritis patients; experiment: Treatment outcome (effectiveness, clinical course) of treatment methods (Example 2); format: in vivo, human
Protocol: (§2) The patients were treated with the selected treatment methods for at least five months and the post-treatment biomarker levels and VECTRA DA Score were determined by VECTRA® DA test along with CRP level and ESR. The change is VECTRA DA Score, CRP level and ESR was determined to determine the change in disease activity and effectiveness of the selected treatment method.

[4] = system: Rheumatoid arthritis patients; experiment: Change in VECTRA DA Score after treatment, longer duration (Example 3); format: in vivo, human
Protocol: Sixteen rheumatoid arthritis patients were selected for treatment by treatment methods that were selected using the algorithm disclosed herein. Some patients were the same as the patients discussed under Example 2. Example 3, however, tracks patients' responses to treatment for a longer duration and uses VECTRA DA Score to determine effectiveness of the treatment.
VECTRA® DA test was conducted for each patient to determine serum levels of the all the biomarkers and VECTRA DA Score in each patient before treatment. The collection of patients closely resembles the random patient population available nationwide as shown by a comparison of the distribution of VECTRA DA Scores in FIG. 6, as noted under Example 2.
The patients were treated with the selected treatment methods and the post-treatment biomarker levels and VECTRA DA Score were determined by VECTRA® DA test. The change is VECTRA DA Score was determined to determine the change in disease activity and effectiveness of the selected treatment method.
The treatment method (one method or a combination of methods) was determined to be effective when the post-treatment disease activity was lower than the pre-treatment disease activity in the patient: when VECTRA DA Score was lower than the pre-treatment VECTRA DA Score. Specifically, the treatment method was determined to be effective when the post-treatment disease activity was at least 20% lower than the pre-treatment disease activity, or when the VECTRA DA Score is decreased to a lower disease activity level after the treatment (i.e., from high to moderate, or high to low, or moderate to low).

Leptin = conditions: literature; Leptin usable as biomarker only in patients with 15% or less body fat; cited from earlier work
[5] = system: Rheumatoid arthritis patients; experiment: Change in VECTRA DA Score after treatment (Example 2); format: in vivo, human; conditions: Patient 10; treatment December 2012-June 2013; score May 2013
Source text: as §1, with “biomarker. […]” for “biomarker.”
as §2

[6] = Patient 6, outcome not reflected by change in any of the three disease markers, earlier treatments not algorithm-selected
[7] = Patient 10, MTX (November 2011) and ORENCIA (August-December 2012) not algorithm-selected, HUMIRA December 2012-June 2013, based on VECTRA DA Score

Molecule: CCN(CCO)CCCC(C)Nc1ccnc2cc(Cl)ccc12 (centres unmarked) [P, Hydroxychloroquine]
- YKL-40 positively affected by treatment method (YKL-40): N
- Resistin positively affected by treatment method (Resistin): N
- MMP-1 positively affected by treatment method (MMP-1): N
- VCAM-1 positively affected by treatment method (VCAM-1): N
- CRP positively affected by treatment method (CRP): Y
- SAA positively affected by treatment method (SAA): Y
- IL-6 positively affected by treatment method (IL-6): Y
- VEGF-A positively affected by treatment method (VEGF-A): N
- MMP-3 positively affected by treatment method (MMP-3): N
- TNFR1 positively affected by treatment method (TNFR1): N

Molecule: C[C@@H]1CCN(C(=O)CC#N)C[C@@H]1N(C)c1ncnc2[nH]ccc12 [TOFAC, Tofacitinib]
- Tapering of oral steroid, Prednisone ([1]; patient 16, XELJANZ 5 mg twice a day added March 2014): XELJANZ allowed
- MMP-1 positively affected by treatment method (MMP-1): Y
- IL-6 positively affected by treatment method (IL-6): Y
- MMP-3 positively affected by treatment method (MMP-3): Y

Molecule: Cc1oncc1C(=O)Nc1ccc(C(F)(F)F)cc1 [ARA, Leflunomide]
- Patient could tolerate the drug in the past ([1]; in vivo): Patient could not
- Toxicity for which the treatment was discontinued ([1]; in vivo): to bone marrow
- WBC count relative to normal (reason for discontinuation) ([1]; in vivo): due to below
- Resistin positively affected by treatment method (Resistin): N
- MMP-1 positively affected by treatment method (MMP-1): Y
- CRP elevated level ([2]; Patient 6, March 2012): 93%
- IL-6 elevated level ([2]; Patient 6, March 2012): 98%
- Leptin elevated level ([2]; Patient 6, March 2012): 90%
- MMP-1 elevated level ([2]; Patient 6, March 2012): 40%
- MMP-3 elevated level ([2]; Patient 6, March 2012): 91%
- Resistin elevated level ([2]; Patient 6, March 2012): 63%
- SAA elevated level ([2]; Patient 6, March 2012): 97%
- TNF-R1 elevated level ([2]; Patient 6, March 2012): 73%
- VCAM-1 elevated level ([2]; Patient 6, March 2012): 85%
- VEGF-A elevated level ([2]; Patient 6, March 2012): 84%
- YKL-40 elevated level ([2]; Patient 6, March 2012): 41%
- Treatment Outcome [3, 6]: (after failing
- VCAM-1 positively affected by treatment method (VCAM-1): Y
- SAA positively affected by treatment method (SAA): Y
- IL-6 positively affected by treatment method (IL-6): Y
- MMP-3 positively affected by treatment method (MMP-3): Y
- Arthritis activity class of VECTRA DA Score ([4]; Patient 6, March 2012): high (a VECTRA DA Score of >44 reflects high disease activity)
- VECTRA DA Score ([4]; Patient 6, March 2012): 74
- TNFR1 positively affected by treatment method (TNFR1): Y

Molecule: O=C(O)c1cc(/N=N/c2ccc(S(=O)(=O)Nc3ccccn3)cc2)ccc1O [S, Sulfasalazine]
- YKL-40 positively affected by treatment method (YKL-40): N
- Resistin positively affected by treatment method (Resistin): N
- Leptin positively affected by treatment method (Leptin): N
- CRP positively affected by treatment method (CRP): Y
- SAA positively affected by treatment method (SAA): Y
- IL-6 positively affected by treatment method (IL-6): Y
- VEGF-A positively affected by treatment method (VEGF-A): Y
- MMP-3 positively affected by treatment method (MMP-3): Y
- TNFR1 positively affected by treatment method (TNFR1): Y

Molecule: Cn1cnc([N+](=O)[O-])c1Sc1ncnc2nc[nH]c12 [Azathioprine (AZA), Azathioprine]
- Treatment effectiveness (reason for discontinuation / earlier trial) [1]: to inefficacy
- Treatment Outcome [3, 6]: (after failing
- Treatment Outcome ([3]; Patient 16, AZA from March 2012, triple therapy with CIMZIA from May 2012, based on VECTRA DA score): Not effective

Molecule: CN(Cc1cnc2nc(N)nc(N)c2n1)c1ccc(C(=O)N[C@@H](CCC(=O)O)C(=O)O)cc1 [MTX, Methotrexate]
- Adverse event for which dose was reduced to 10 mg/week ([1]; human, in vivo): hair loss, April 2014
- Treatment effectiveness (reason for discontinuation / earlier trial) [1]: without success
- YKL-40 positively affected by treatment method (YKL-40): N
- Resistin positively affected by treatment method (Resistin): N
- MMP-1 positively affected by treatment method (MMP-1): N
- Leptin positively affected by treatment method (Leptin): N
- CRP elevated level ([2]; Patient 5, August 2012): 67%
- IL-6 elevated level ([2]; Patient 5, August 2012): 79%
- Leptin elevated level ([2]; Patient 5, August 2012): 97%
- MMP-1 elevated level ([2]; Patient 5, August 2012): 79%
- MMP-3 elevated level ([2]; Patient 5, August 2012): 95%
- Resistin elevated level ([2]; Patient 5, August 2012): 82%
- SAA elevated level ([2]; Patient 5, August 2012): 92%
- TNF-R1 elevated level ([2]; Patient 5, August 2012): 79%
- VCAM-1 elevated level ([2]; Patient 5, August 2012): 97%
- VEGF-A elevated level ([2]; Patient 5, August 2012): 48%
- YKL-40 elevated level ([2]; Patient 5, August 2012): 94%
- SAA elevated level ([2]; Patient 10, April 2012): 65%
- VEGF-A elevated level ([2]; Patient 10, April 2012): 59%
- YKL-40 elevated level ([2]; Patient 10, April 2012): 72%
- Treatment Outcome ([3]; Patient 5, MTX alone from March 2012 not algorithm-selected, MTX and CIMZIA October 2012-June 2013, based on Sedimentation Rate and CRP Level): Not effective
- Treatment Outcome ([3]; Patient 8, MTX not algorithm-selected, ORENCIA December 2012-June 2013, based on VECTRA DA score): Not effective
- Treatment Outcome ([3]; Patient 9, ACTEMRA from May 2012 not algorithm-selected, MTX added October 2012, based on ESR and CRP level): Effective,
- Treatment Outcome [3, 7]: Not effective
- VCAM-1 positively affected by treatment method (VCAM-1): N
- CRP positively affected by treatment method (CRP): Y
- SAA positively affected by treatment method (SAA): Y
- IL-6 positively affected by treatment method (IL-6): Y
- VEGF-A positively affected by treatment method (VEGF-A): Y
- MMP-3 positively affected by treatment method (MMP-3): Y
- Arthritis activity class of VECTRA DA Score ([4]; Patient 5, August 2012): high (a VECTRA DA Score of >44 reflects high disease activity)
- VECTRA DA Score increased by ([4]; Patient 5, August 2012 since March 2012 (5 months treatment only)): by 7 since
- Arthritis activity class of VECTRA DA Score ([4]; Patient 10, April 2012): (moderate) (a VECTRA DA Score of >29 and ≦44 reflects moderate disease activity)
- VECTRA DA Score ([4]; Patient 10, April 2012, Methotrexate 10 mg/week): Score: 33
- TNFR1 positively affected by treatment method (TNFR1): N

Molecule: Rituximab
- YKL-40 positively affected by treatment method (YKL-40): N
- Resistin positively affected by treatment method (Resistin): N
- MMP-1 positively affected by treatment method (MMP-1): N
- Leptin positively affected by treatment method (Leptin): N
- VCAM-1 positively affected by treatment method (VCAM-1): N
- CRP positively affected by treatment method (CRP): Y
- SAA positively affected by treatment method (SAA): N
- IL-6 positively affected by treatment method (IL-6): Y
- MMP-3 positively affected by treatment method (MMP-3): N

Molecule: Adalimumab [HUMIRA (TNF)]
- Treatment Outcome [3, 7]: Effective,
- VECTRA DA Score - Decreased by [5]: Decreased by 22

B1: Certolizumab pegol (antibody, chains of the INN, looked up, V domains shown)
VH: EVQLVESGGGLVQPGGSLRLSCAASGYVFTDYGMNWVRQAPGKGLEWMGWINTYIGEPIYADSVKGRFTFSLDTSKSTAYLQMNSLRAEDTAVYYCARGYRSYAMDYWGQGTLVTVSS
VL: DIQMTQSPSSLSASVGDRVTITCKASQNVGTNVAWYQQKPGKAPKALIYSASFLYSGVPYRFSGSGSGTDFTLTISSLQPEDFATYYCQQYNIYPLTFGQGTKVEIK
modifications: Fab' PEG
- Treatment Outcome [3, 6]: (after failing

B2: TNF (CIMZIA) (antibody, chains of the INN, looked up, V domains shown)
VH: B1 VH
VL: B1 VL
modifications: Fab' PEG
- Treatment effectiveness (reason for discontinuation / earlier trial) [1]: without success
